Measurements from paper PMC10185535, “Structural insights into cardiolipin replacement by phosphatidylglycerol in a cardiolipin-lacking yeast respiratory supercomplex” (Nature Communications, 2023).
Each block holds one molecule with its values, some of them ahead of it.

Tests used:
[1] = test system: T1, CRD1∆ SC (III2IV1 trimeric respiratory supercomplex); experiment: oxygen consumption, Oroboros respirometry; type: biochemical, Saccharomyces cerevisiae; details: 100 μM DQH2, 50 μM cytochrome c, 0.05% digitonin, pH 7.1, 30 °C
T1 construct: gene COB; native trimer (complex III dimer plus one complex IV) from cardiolipin-lacking strain, Cox4 with C-terminal His10, subunit Qcr10 lost; digitonin, His-Trap and SEC; with Cytochrome b-c1 complex subunit 1, mitochondrial; Cytochrome b-c1 complex subunit 2, mitochondrial; Cytochrome b-c1 complex subunit 6, mitochondrial; Cytochrome b-c1 complex subunit 7, mitochondrial; Cytochrome b-c1 complex subunit 9, mitochondrial; Cytochrome c oxidase subunit 2; Cytochrome c oxidase subunit 3; Cytochrome c oxidase subunit 4, mitochondrial; Cytochrome c oxidase subunit 6, mitochondrial; Cytochrome c oxidase subunit 7, mitochondrial; Cytochrome c oxidase subunit 8, mitochondrial; Cytochrome c oxidase subunit 9, mitochondrial; Cytochrome c oxidase subunit 12, mitochondrial; Cytochrome c oxidase subunit 13, mitochondrial; Cytochrome c oxidase subunit 26, mitochondrial

[2] = test system: T2, WT SC (IV1III2IV1; III2IV2 tetrameric respiratory supercomplex); experiment: oxygen consumption, Oroboros respirometry; type: biochemical, Saccharomyces cerevisiae; details: 100 μM DQH2, 50 μM cytochrome c, 0.05% digitonin, pH 7.1, 30 °C
T2 construct: gene COB; native tetramer (complex III dimer flanked by two complex IV), digitonin extract of mitochondria, FoF1-ATPase removed, sucrose gradient; no tag on the supercomplex; with Cytochrome b-c1 complex subunit 2, mitochondrial; Cytochrome b-c1 complex subunit 6, mitochondrial; Cytochrome b-c1 complex subunit 9, mitochondrial; Cytochrome b-c1 complex subunit 10, mitochondrial; Cytochrome c oxidase subunit 2; Cytochrome c oxidase subunit 3; Cytochrome c oxidase subunit 4, mitochondrial; Cytochrome c oxidase subunit 5A, mitochondrial; Cytochrome c oxidase subunit 6, mitochondrial; Cytochrome c oxidase subunit 7, mitochondrial; Cytochrome c oxidase subunit 8, mitochondrial; Cytochrome c oxidase subunit 9, mitochondrial; Cytochrome c oxidase subunit 12, mitochondrial; Cytochrome c oxidase subunit 13, mitochondrial; Cytochrome c oxidase subunit 26, mitochondrial

[3] = test system: T1, CRD1∆ SC (III2IV1 trimeric respiratory supercomplex); experiment: cryo-EM structure […] Å; type: binding, Saccharomyces cerevisiae; details: Qi sites of complex III only (Cob); endogenous
[4] = test system: T2, WT SC (IV1III2IV1; III2IV2 tetrameric respiratory supercomplex); experiment: cryo-EM structure […] Å; type: binding, Saccharomyces cerevisiae; details: Qi and Qo sites of complex III; Cob, Rip1 His181 (Qo); copurified endogenous
[5] = target: complex III2 (CIII) of the trimeric supercomplex (III2IV1) from the cardiolipin-lacking CRD1∆ S. cerevisiae mutant (S. cerevisiae (endogenous in strain YEB100)) (UniProt P07256); experiment: cryo-EM structure; trimeric SC (III2IV1) from the CRD1∆ strain, purified by His-Trap (Cox4-His10) and Superose 6 in 0.05% digitonin; Titan Krios, with added 30° tilt data; 3.3 Å
[6] = target: complex III2 (CIII, dimer of cytochrome bc1) of the wild type S. cerevisiae respiratory supercomplex (S. cerevisiae (endogenous in strain USY00b)) (UniProt P07256); experiment: cryo-EM structure; WT tetrameric SC (IV1III2IV1) purified by sucrose gradient in digitonin, diluted 1:9 in 15 mM Tris-HCl pH 7.2, 20 mM KCl; Titan Krios 300 kV; 3.2 Å
Cor1, subunit of CIII = target: T3, Cor1, subunit of CIII (S. cerevisiae (endogenous in strain …, UniProt P07256 27-457)); experiment: as above; details: both partners purified
T3 construct: Cor1, subunit of complex III, S. cerevisiae; source: endogenous, mitochondria of S. cerevisiae strain USY00b; within the purified III2IV2 SC (sucrose gradient)
T3 sequence (looked up): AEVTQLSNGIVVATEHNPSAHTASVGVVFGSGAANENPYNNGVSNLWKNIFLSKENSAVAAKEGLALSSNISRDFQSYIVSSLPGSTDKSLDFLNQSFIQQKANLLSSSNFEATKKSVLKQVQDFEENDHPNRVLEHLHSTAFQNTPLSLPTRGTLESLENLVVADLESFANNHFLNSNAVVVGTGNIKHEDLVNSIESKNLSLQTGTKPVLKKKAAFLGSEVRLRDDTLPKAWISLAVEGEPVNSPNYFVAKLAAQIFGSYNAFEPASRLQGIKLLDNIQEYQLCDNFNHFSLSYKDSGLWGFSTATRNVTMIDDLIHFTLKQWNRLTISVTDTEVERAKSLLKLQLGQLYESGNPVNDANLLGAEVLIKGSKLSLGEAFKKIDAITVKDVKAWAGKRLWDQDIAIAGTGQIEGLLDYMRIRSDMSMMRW

Molecule: CCCCCCCCCCc1c(C)c(O)c(OC)c(OC)c1O [reduced decylubiquinone]
oxygen consumption, Oroboros respirometry [1]: Due to limited amounts of the ∆CRD1 SC, only one determination was possible | oxygen consumption, Oroboros respirometry [2]: purified WT SC supplemented with Cyt c and reduced decylubiquinone (DQH2) also displayed similar activity

Molecule: COC1=C(OC)C(=O)C(C/C=C(\C)CC/C=C(\C)CC/C=C(\C)CC/C=C(\C)CC/C=C(\C)CCC=C(C)C)=C(C)C1=O [UQ6]
cryo-EM structure 3.3 Å [3]: Densities for UQ6 were found only at Qi sites | cryo-EM structure 3.2 Å [4]: four UQ6 ligands were placed into the map, two in each monomer of CIII

stoichiometry N [5]: 2
Molecule: complex III2 (CIII) of the trimeric supercomplex (III2IV1) from the cardiolipin-lacking CRD1∆ S. cerevisiae mutant (from UniProt P07256 27-457; P00163 1-385; P07143 62-309; P08067 31-215; P00128 1-127; P08525 1-94; P22289 1-66)

stoichiometry N [6]: 2
Molecule: complex III2 (CIII, dimer of cytochrome bc1) of the wild type S. cerevisiae respiratory supercomplex (from UniProt P07256 27-457; P00163 1-385; P07143 62-309; P08067 31-215; P00128 1-127; P08525 1-94; P22289 1-66; P37299 1-77)

binding result (Cor1, subunit of CIII): binds
B1: Cox5a, subunit of CIV (natural protein, UniProt P00424 21-153, looked up)
chain: AQTHALSNAAVMDLQSRWENMPSTEQQDIVSKLSERQKLPWAQLTEPEKQAVWYISYGEWGPRRPVLNKGDSSFIAKGVAAGLLFSVGLFAVVRMAGGQDAKTMNKEWQLKSDEYLKSKNANPWGGYSQVQSK
notes: Cox5a, subunit of complex IV, S. cerevisiae; source: endogenous, mitochondria of S. cerevisiae strain USY00b; within the purified III2IV2 SC (sucrose gradient)
